As usually defined, the melting point is the temperature, or range, at which the solid turns liquid. Molecule `CC1CCCCC1C(=O)Nc1ccc(-c2cnc(-c3ccc(NC(=O)C4CCCCCC4)cc3)[nH]2)cc1` (stereo unspecified) displayed a melting point of 220 to 222 °C.
Under `CN(C)c1ccc(S(N)(=O)=O)cn1` stands 133 to 138 °C; under `Sc1ncc(CCCCc2ccccc2)[nH]1`, 168 to 169 °C; under `COC(=O)c1cc(C(C)C)c(OS(=O)(=O)NC(=O)Cc2c(C(C)C)cc(C(C)C)cc2C(C)C)c(C(C)C)c1`, 144 to 146 °C.
The molecule `CC(=O)N1c2c(ccn3c(C)c(C)nc23)C(=O)[C@H](OC(=O)C(C)(C)C)[C@H]1c1ccccc1` displayed a melting point of 168 to 170 °C.
Under `c1ccc(-c2cc(-c3ccc(-c4nccc5ccccc45)cc3)cc(-c3nc(-c4ccccc4)nc(-c4ccccc4)n3)c2)cc1` stands 280 °C; under `C[C@@H]1Cc2cc([N+](=O)[O-])ccc2N1`, 63 to 64 °C; under `CC(=O)N1CCC(C(=NNc2ccccc2)c2ccc(Br)cc2F)CC1`, 174 to 176 °C.
In the case of `O=C1c2ccccc2C(=O)C1(c1ccccc1)N1CCC(c2noc3cc(F)ccc23)CC1` it was 149 to 150 °C.
Under `CCCCOCn1c(-c2ccc(Cl)cc2)c(C#N)c(Br)c1C(F)(F)F` stands 52 to 53.5 °C.
The molecule `CCOC(=O)CCCCCc1oc(=O)[nH]c1-c1ccc(Cl)cc1` yielded a melting point of 113 to 114 °C.
In the case of `CCO/C(=N/OC(C)=O)C1Cc2cc(C(=O)CC)c(O)c(Cl)c2O1` (stereo unspecified) it was 140 to 142 °C.
Under `CCSc1c(O)ccc2[nH]ncc12` stands 116 °C; under `C=CCn1cc(Cc2ccc(C(=O)O)cc2OC)c2cc(CC(=O)NCCCC)ccc21`, 78 to 80 °C.
In the case of `Nc1ccc(N2CCN(c3ccc(OCC(O)(Cn4cncn4)c4ccc(Cl)cc4Cl)cc3)CC2)cc1` (stereo unspecified) it was 120 °C.
Take `CC(NC(=S)Nc1ccc(N2CCCCC2)nc1)C(C)(C)C` (stereo unspecified): the melting point fell in the range of 151 to 153 °C.
As for `Cc1c(Oc2ccccc2)cccc1Oc1ccccc1`, the melting point was in the range of 39 to 41 °C.
In the case of `Cc1nc(C)c(Cl)c(NCc2ccc(Oc3ccc4ncc([N+](=O)[O-])n4n3)cc2)n1` it was 203 °C.
As for `O=C(CCc1ccccc1)Nc1cc(-c2nnc(SCc3cccc(C(F)(F)F)c3)o2)ccn1`, the melting point was in the range of 159 to 160 °C.
In the case of `CCCSc1nc2c(cc1C#N)C(=O)CC(C)(C)C2` it was 100 to 102 °C.
In the case of `NC(=O)Cn1cc2c(n1)CN=C(c1ccccc1)c1cc(Cl)ccc1-2` it was 236 to 238 °C; in that of `CC(O)c1cccc(NC(=O)NCC(=O)N(c2ccccc2)C(C)C(=O)N2CCCC(C)(C)C2)c1` (mixture of isomers), 186 °C.
As to `CCOC(=O)CN(c1c([N+](=O)[O-])cc([N+](=O)[O-])c2ccccc12)S(=O)(=O)c1ccc(C)cc1`, the melting point was 106 to 107 °C.
As for `COCCNC(=O)c1cccc(-c2cccc3cc(Cc4cccc(C(C)=O)c4)sc23)c1`, the melting point lay in the range of 81 to 82 °C.
In the case of `CC1(C)COc2cc(Cl)c(Cl)cc2C(O)(c2cccnc2)C1` (stereo unspecified) it was 166 °C; in that of `CCOC=CC(=O)Nc1cccc(C(=O)OC)c1`, 108 to 110 °C; in that of `Cc1nc2c(OCc3cccs3)cccn2c1CC#N`, 155 to 157 °C.
Under `O=C(NC(=Cc1ccccc1)c1ccccc1)C(F)(F)F` stands 148 to 150 °C; under `CCNC1CCc2[nH]c3ccc(OCc4ccccc4)cc3c2C1` (stereo unspecified), 117 to 118 °C.
Under `Cc1c(C)c2c(c(C)c1NCc1ccc(Cl)cc1)C(c1ccc(C(C)C)cc1)C(C)(C)O2` (stereo unspecified) stands 93 to 94 °C; under `O=c1[nH]c2cc(F)c(NCC3CCCCO3)cc2o1` (stereo unspecified), 185 to 186 °C.
In turn, `O=C1CCC(c2ccc3[nH]c(-c4cccc(C(F)(F)F)c4)cc3c2)=NN1` gave a melting point of 215 to 218 °C.
Under `Cc1nc2c(c(=O)[nH]1)-c1ccc(Cl)cc1C(c1ccccc1F)=NC2` stands 262 to 264 °C; under `COC(=O)c1cn(-c2ccc(F)cc2)c(-c2ccc(Cl)cc2)cc1=O`, 250 to 254 °C; under `CNC(=NS(C)(=O)=O)NCCSCc1csc(NC(N)=NCC(F)F)n1`, 85 to 89 °C.
`Nc1ccc(CCc2ccc(OCc3ccccc3)c(OCc3ccccc3)c2)cc1` showed a melting point of 97 to 101 °C.
Under `CC(C)(C)OC(=O)N1CCO[C@@H](c2ccc(C(=O)O)cc2)C1` stands 173 °C; under `CCCc1ccnc(C(=O)c2[nH]c3ccc(Cl)cc3c2CC(=O)O)c1`, 208 to 209 °C; under `c1ccc2c(c1)c1ccccc1n2-c1ccc(-n2ccnc2-c2nccn2-c2ccc(-n3c4ccccc4c4ccccc43)cc2)cc1`, 270 to 274 °C.
In the case of `CC1CCN(CCCC(=O)c2ccc3oc4ccc(C(=O)CCCN5CCC(C)CC5)cc4c3c2)CC1` it was 72 to 73 °C.
In the case of `Nc1ccc(S(=O)(=O)Nc2ccn(C3CCCC3)c(=O)n2)cc1` it was 167 to 171 °C; in that of `O=C1C(=Cn2ccnc2)CSc2ccccc21`, 139 to 140 °C.
As to `CC1CC(=O)NN=C1c1ccc(N2CCN(CCCCN)CC2)c([N+](=O)[O-])c1` (stereo unspecified), the melting point is 145 to 146 °C.
In the case of `Cc1ccc(NC2CCCc3cc(C)cnc32)cc1` (stereo unspecified) it was 83 to 85 °C; in that of `CC1CCN(c2c(-c3ccc(F)cc3Cl)c(C#N)nc3ncnn23)CC1`, 247 °C; in that of `Cc1noc(NS(=O)(=O)c2ccc(NC(=O)c3ccccc3)cc2-c2ccc(CC(C)C)cc2)c1C`, 207 to 211 °C.
Under `CC(=Cc1ccc2ccccc2c1)c1ccc(C)cc1` stands 109 °C; under `CC[C@H](N)C(=O)N1CCC[C@H]1C(=O)NCCCSC`, 120 to 121 °C.
With `CCOC(=O)c1ccc(/C=C(\C)C=O)s1`, the melting point worked out at 98 °C.
In the case of `COC(=O)C1=Cc2cc(-c3ccc(OC)cc3)ccc2SCC1` it was 117 to 120 °C.
In turn, `COCOc1cc(F)ccc1-c1cc(-c2cccc(Br)c2)c(C#N)c(N)n1` yielded a melting point of 165 to 166 °C.
In the case of `COc1ccc(-n2cc(C(=O)O)c(C)n2)cc1` it was 176 to 178 °C; in that of `COc1c(Cl)cc(F)c(I)c1F`, 62 to 64 °C; in that of `CC1(CNC(=O)CCl)OCCO1`, 128 to 130 °C.
Under `O=C(OCC1OC(c2ccc(Cl)c(Cc3cc4ccccc4s3)c2)C(OC(=O)c2ccccc2)C(OC(=O)c2ccccc2)C1O)c1ccccc1` (stereo unspecified) stands 215 to 217 °C; under `CSc1sc(-c2cncs2)c2c1C(=O)CC(C)(C)C2`, 138 to 140 °C; under `CC(=O)c1ccc(-c2ccc(O)c(Br)c2)cc1`, 166 to 170 °C.
In the case of `Cc1cc(C)cc(COC(=O)C(NC(=O)OC(C)(C)C)C(c2ccccc2)c2ccccc2)c1` (stereo unspecified) it was 123 °C; in that of `CS(=O)(=O)Nc1cc(F)cc(F)c1`, 121 °C.
Consider `CCCCCCCCCCCOc1ccc(C(=O)O)cc1OCCCCCCCCCCC`, for which the melting point lay within 98 to 101 °C.
In the case of `CC(=O)NC1(c2ccc(Cl)cc2)c2ccc(Cl)cc2-c2ncncc21` (stereo unspecified) it was 238 to 241 °C; in that of `O=C(Nc1cccc(C(=O)O)c1)NC1C(=O)N(CC(=O)N2CCCC2)c2ccccc2N(C2CCCCC2)C1=O` (stereo unspecified), 275 to 276 °C.
Under `CCOc1ccccc1N(C[C@H]1CCC[C@H](CN(C(=O)Nc2ccc(N(C)C)cc2)c2ccccc2OCC)C1)C(=O)Nc1ccc(N(C)C)cc1` (relative stereo) stands 130 to 135 °C; under `O=CCCCN1C(=O)c2ccccc2C1=O`, 70 °C; under `OCC1OC(n2cnc3c(Nc4ccccc4Cl)ccnc32)C(O)C1O` (stereo unspecified), 207 °C.
In the case of `NC1C(=O)N(CCCO)c2ccccc2N(c2ccccc2)C1=O` (stereo unspecified) it was 55 to 58 °C; in that of `CCOc1ccc(CO)c(Oc2ccc(Cl)cc2Cl)n1`, 106 to 107 °C; in that of `O=C(Nc1ccc(-n2nc(C3CC3)cc2C2CC2)c(F)c1)c1c(F)cccc1F`, 182 to 186 °C.
In turn, `CCCCOC(=O)c1cc(NC(=O)C2=C(C)OCCS2)ccc1Cl` had a melting point of 71 to 73 °C.
Under `COc1ccc2c(c1)CCC1C2CCC2(C)C(NCc3cccs3)CCC12` (stereo unspecified) stands 85.5 to 85.9 °C; under `O=C(Nc1c[nH]nc1C(=O)NCCOc1ccccc1)c1ccccn1`, 182 to 183 °C; under `CCCn1ncc2c(=O)[nH]c(-c3cc(C(=O)N4CCN(C)CC4)ccc3OCC)nc21`, 124 to 127 °C.
Under `C#CCOc1cc2c(=O)cc(C(=O)OCC)n(CC#C)c2ccc1=O` stands 169 °C.
In the case of `CN(C)c1ccc2cc(-c3ccnc(N)c3C#N)ccc2c1` it was 256 to 257 °C; in that of `CCc1cc(C(=O)c2ccccc2Cl)c(-n2c(C)nnc2CNC(=O)c2cc3ccccc3n2CCC(=O)OC)s1`, 67 to 68 °C.
For `O=C(O)C(=O)c1csc2ccccc12`, the melting point is 92 to 93 °C.
Molecule `C#CCN(Cc1cc2c(=O)n(C)c(CN3CCOCC3)nc2cc1Cl)c1ccc(C(=O)OC(C)(C)C)cc1` yielded a melting point of 140 to 143 °C.
Under `N#Cc1ccsc1N=Cc1ccc([N+](=O)[O-])s1` stands 192 to 194 °C; under `Nc1nccc(OCCc2ccccc2)c1[N+](=O)[O-]`, 131 to 132 °C.
Under `NC(=O)N1CC(Oc2ccc(Br)cc2)C1` stands 193 to 194 °C.
As for `C[Si](C)(C)CCCOC1CCN(c2ccc([N+](=O)[O-])cc2)C1` (stereo unspecified), the melting point came to 68 °C.
In the case of `O=C1Nc2cc(C(F)(F)F)ccc2N2CCN(CCc3ccccn3)CC12` (stereo unspecified) it was 194 to 196 °C.
Under `COc1cncc(-c2ccc(OC3SCC(OC(C)=O)C(OC(C)=O)C3OC(C)=O)cn2)c1` (stereo unspecified) stands 155 °C.
Molecule `CSC(=C[N+](=O)[O-])NCCSCc1ncccc1Br` returned a melting point of 79 to 80 °C.
Take `COc1c(N2CCC(O)C2)c(F)cc2c(=O)c(C(=O)O)cn(C3CC3)c12` (stereo unspecified): the melting point lay within 253 to 254 °C.
In the case of `CC1SC(=O)NN=C1c1ccc2c(c1)C(C)(C)C(=O)N2C(=O)c1cccnc1` (stereo unspecified) it was 245 °C.

(Values after a melting point compilation (Tetko et al.; mined from patent text by program, amines drawn as free bases though some values may be those of a salt).)
